Experiments:
[1] = tested on: healthy participants; experiment: Human study: subjective ratings (PANAS mood, side effect profile, LSEQ sleep, guess of treatment arm); assay type: in vivo
Text: Twenty healthy participants (7 females, 13 males; mean age 25.1 years, range 20-38 years; mean BMI 22.7 kg/m^2, range 18.7-30.0 kg/m^2) were included in the study after giving full informed written consent.
Exclusion criteria included a history of any DSM-5 Axis I psychiatric disorder (determined using the […] for Diagnostic and Statistical Manual for Mental Health Disorders), significant current medical condition, current regular medication (apart from the contraceptive pill), pregnancy or lactation, heavy smoking (defined as more than 5 cigarettes per day) and having taken part in another study involving an investigational drug within the previous 3 months. Participants were asked to maintain stable exercise and diet as well as refrain from alcohol during study participation.
Ebselen capsules and identical matching placebo (containing microcrystalline cellulose) were purchased from Shasun Pharmaceuticals Ltd. Participants were tested twice (seven days apart) receiving on one occasion ebselen and, on the other, placebo in a randomised, double-blind, cross-over design. Ebselen was administered in 6×200 mg capsules in three doses given over two days. The order of receiving either the ebselen or the placebo was randomised.
On the day before cognitive testing, participants took the first dose at 1 pm and the second dose at 10 pm. The final dose was taken around 3 hrs prior to cognitive testing. Participants were sent text message reminders a few minutes before they were due to take medication, and were asked to confirm receipt of the messages. The cognitive tasks were carried out immediately after a magnetic resonance spectroscopy study.
On the screening visit, participants were assessed for baseline depression and anxiety symptoms with the Beck Depression Inventory (Beck et al.; Arch. Gen. Psychiatry; 1961, 4: 561-571) and the state measure of the State-Trait Anxiety Inventory (STAI) (Spielberger et al.; Manual for the State-Trait Anxiety Inventory, Consulting Psychologists Press, Palo Alto Calif., 1983), and for personality with the Eysenck Personality Questionnaire (Eysenck and Eysenck, Manual of the Eysenck Personality Questionnaire, London: Hodder & Stoughton, 1975). On the morning preceding psychological testing, the Leeds Sleep Evaluation Questionnaire (LSEQ) was completed within 30 minutes of waking (Parrot and Hindmarch, Psychopharmacology, 1980, 71, 173-179).
Before cognitive testing, participants were asked to rate their mood using the Positive and Negative Affective Schedule (PANAS) (Watson et al.; J. Pers. Soc. Psychol., 1988, 54, 1063-1070), to complete a side effect profile using a 4-point rating scale and also to guess as to whether they had received ebselen or placebo on that randomization arm. […]

[2] = tested on: rats; experiment: 5-CSRTT, stimulant (cocaine)-induced responding; assay type: in vivo, rats (males; Long Evans)
Method: (§1) Testing was carried out in Vancouver (Canada) using rats (males; Long Evans from Charles River) which were given at least two weeks to acclimatise to the animal facility. They were housed in pairs on a 12 hour reverse light-dark cycle (lights off at 7 am). In the second week of acclimatisation, rats were handled briefly each day. […] For each task, there was then a habituation session to the operant boxes before training began.
(§2) Ebselen, cocaine and 2,5-dimethoxy-4-iodoamphetamine (DOI) were obtained from Sigma Aldrich, and MDL 100,907 was obtained from Tocris. Ebselen was dissolved in 0.5M DMSO and made up to injection volume (8 ml/kg) using 4% cyclodextrin. Cocaine and DOI were dissolved in 0.9% saline. MDL 100,907 was dissolved in 0.9% saline and the pH was adjusted to 6.25 using 1M NaOH and 0.1M HCl.
(§3) All data for the cognitive tasks are presented as mean+SEM change from baseline: • performance on drug day−performance on the previous day
In experiments investigating the effect of ebselen on cocaine and DOI, data were analysed with a two-way ANOVA with ebselen and cocaine/DOI as between-subject factors. If an interaction was detected, this was further investigated using simple main effects analysis. All analyses were conducted using SPSS 22 with p<0.05 considered significant.
To assess the effect of ebselen on stimulant-induced responding, ebselen (10 mg/kg) or vehicle was administered 1 hour prior to cocaine (15 mg/kg i.p.), which in turn was administered 10 minutes prior to testing. Treatments were administered using according to a Latin square design. The inter-trial interval for these sessions was 5 seconds. Two rats were excluded from the data due to increasing levels of omissions across all days of this portion of the study. The experiment was repeated using 0.03 mg/kg MDL 100,907 instead of ebselen.

[3] = tested on: rats; experiment: 5 Choice Serial Reaction Time Task (5-CSRTT); assay type: in vivo, rats (males; Long Evans)
Method: as §1, §2, §3
The data were analysed with repeated measures ANOVA with dose as a within-subject factor. Where appropriate, post-hoc analysis was performed using Student's paired t-test.
This test was performed as described previously (Bari et al., Nature Protocols, 2008, 3(5), 759-767; Robbins, Psychopharmacology, 2002, 163(3), 362-380).
Fourteen rats were trained to respond to brief visual cues presented in one of five target areas with an inter-trial interval of 5 seconds. On the day of testing in the presence of ebselen, the inter-trial interval was lengthened to 7 seconds to cause a reliable increase in premature responding.
Ebselen and vehicle were administered by intraperitoneal (i.p.) injection 1 hour prior to testing. Three doses of ebselen (2, 5 or 10 mg/kg) were studied, administration being in a random order that was determined by a Latin square design. Rats were run five days a week, with the treatment day falling on day three.
Following ebselen, 3 doses of MDL 100,907 (0.01, 0.03 and 0.1 mg/kg, i.p.) were tested in a Latin square design with the first injection occurring one week after the final injection of ebselen. MDL 100,907 is a selective 5-HT2A antagonist. Rats were similarly run five days a week with injections falling on the third day, and the lengthened inter-trial interval was used only on the drug-administration day.
The Latin square design (for both the 5-CSRTT and rGT experiments) was counterbalanced, based on performance in the last training day of each task. A one week wash-out period was given between drug-administration days. A baseline session was performed both the day before and the day after treatment to ensure stable off-drug performance.

O=c1c2ccccc2[se]n1-c1ccccc1 [Ebselen, 2-phenyl-1,2-benzisoselenazol-3(2H)-one]
tolerability ([1]; 20 healthy participants, 6x200 mg in three doses over two days, no participants dropped out): well tolerated | frequency of other side effects ([1]; ebselen and placebo treatment compared): low and comparable frequency of side effects | subjective measures of sleep (LSEQ) ([1]; ebselen vs placebo): no significant differences | participants who reported feeling drowsy ([1]; of 20 participants on ebselen treatment, none on placebo): Five | any other measure ([2]; ebselen 10 mg/kg / cocaine 15 mg/kg experiment): No effects | reversal of the cocaine effect on omissions ([2]; ebselen 10 mg/kg before cocaine 15 mg/kg, p=0.463): not reversed | reversal of the cocaine effect on accuracy ([2]; ebselen 10 mg/kg before cocaine 15 mg/kg, p=0.969, interaction p=0.278): not reversed | cocaine-induced premature responses ([2]; ebselen 10 mg/kg i.p. 1 hour prior to cocaine 15 mg/kg i.p., p=0.023): reduced cocaine-induced premature responses | number of premature responses, ebselen/cocaine vs vehicle/vehicle treatment ([2]; ebselen 10 mg/kg, cocaine 15 mg/kg i.p., p=0.909): did not differ | premature responding ([3]; ebselen 2 mg/kg i.p. vs vehicle, p=0.158): No effect | premature responding ([3]; ebselen 5 mg/kg i.p. vs vehicle, p=0.011): statistically significant decreases | premature responding ([3]; ebselen 10 mg/kg i.p. vs vehicle, p=0.032): statistically significant decreases | premature responding ([3]; ebselen 2, 5, 10 mg/kg i.p. 1 hour prior to testing, vs vehicle, ANOVA p=0.049, inter-trial interval 7 s): decreased premature responding in a dose-dependent manner | any other measures of the 5-CSRTT ([3]; ebselen 2, 5, 10 mg/kg i.p., p=0.192-0.805): No effects

— patent US10653680B2, “Treatment of impulsivity-related disorders” (OXFORD UNIVERSITY INNOVATION LIMITED, priority 2016, dated 2020)
